In brackets after ≈: the same amount, converted by molar mass.
Tests used:
[1] = tested on: Staphylococcus aureus; test: Antibacterial activity against erythromycin-sensitive Staphylococcus aureus ATCC 13709 by broth microdilution method; format: functional
[2] = tested on: Streptococcus pneumoniae; test: Antibacterial activity against erythromycin-sensitive Streptococcus pneumoniae SP030 by broth microdilution method; format: functional
[3] = tested on: Streptococcus pyogenes; test: Antibacterial activity against erythromycin-sensitive Streptococcus pyogenes 3565 by broth microdilution method; format: functional
[4] = tested on: Staphylococcus aureus; test: Antibacterial activity against efflux-mediated macrolide-resistant Staphylococcus aureus PK1 by broth microdilution method; format: functional
[5] = tested on: Streptococcus pneumoniae; test: Antibacterial activity against efflux-mediated macrolide-resistant Streptococcus pneumoniae Ci137 by broth microdilution method; format: functional
[6] = tested on: Streptococcus pyogenes; test: Antibacterial activity against efflux-mediated macrolide-resistance Streptococcus pyogenes 2 Finland by broth microdilution method; format: functional
[7] = tested on: Staphylococcus aureus; test: Antibacterial activity against inducible macrolide-lincosamide-streptogramin B resistant Staphylococcus aureus 90256 by broth microdilution method; format: functional
[8] = tested on: Streptococcus pneumoniae; test: Antibacterial activity against inducible macrolide-resistant, constitutive lincosamide, streptogramin-resistant Streptococcus pneumoniae 134 GR M by broth microdilution method; format: functional
[9] = tested on: Streptococcus pyogenes; test: Antibacterial activity against inducible macrolide-lincosamide-streptogramin B resistant Streptococcus pyogenes Finland 11 by broth microdilution method; format: functional
[10] = tested on: Staphylococcus aureus; test: Antibacterial activity against constitutive macrolide, lincosamide, streptogramin-resistant Staphylococcus aureus PK2 by broth microdilution method; format: functional
[11] = tested on: Streptococcus pneumoniae; test: Antibacterial activity against constitutive macrolide, lincosamide, streptogramin-resistant Streptococcus pneumoniae 58 spain by broth microdilution method; format: functional
[12] = tested on: Streptococcus pyogenes; test: Antibacterial activity against macrolide, lincosamide, streptogramin-resistant Streptococcus pyogenes 166 GR-Micro by broth microdilution method; format: functional
[13] = tested on: Haemophilus influenzae; test: Antibacterial activity against Haemophilus influenzae ATCC 49247 by broth microdilution method; format: functional
[14] = tested on: Moraxella catarrhalis; test: Antibacterial activity against Moraxella catarrhalis ATCC 23246 by broth microdilution method; format: functional
[15] = tested on: Rattus norvegicus; test: Liver blood flow in Han Wistar rat at 10 mg/kg, iv and 50 mg/kg, po; format: ADME, organism-based; settings: in vivo

| Compound | MIC [1] | MIC [2] | MIC [3] | MIC [4] | MIC [5] | MIC [6] | MIC [7] | MIC [8] | MIC [9] | MIC [10] | MIC [11] | MIC [12] | MIC [13] | MIC [14] | LBF [15] |
| --- | --- | --- | --- | --- | --- | --- | --- | --- | --- | --- | --- | --- | --- | --- | --- |
| CC[C@H]1OC(=O)[C@H](C)[C@@H](O[C@H]2C[C@@](C)(OC)[C@@H](OC(=O)CCOCCOCCNc3cc4c(=O)c(C(=O)O)cn(C5CC5)c4cc3Cl)[C@H](C)O2)[C@H](C)[C@@H](O[C@@H]2O[C@H](C)C[C@H](N(C)C)[C@H]2O)[C@](C)(O)C[C@@H](C)CN(C)[C@H](C)[C@@H](O)[C@]1(C)O | 0.25 µg/mL (≈ 0.214 µM) | ≤ 0.125 µg/mL | ≤ 0.125 µg/mL | 0.25 µg/mL (≈ 0.214 µM) | ≤ 0.125 µg/mL | ≤ 0.125 µg/mL | 0.25 µg/mL (≈ 0.214 µM) | ≤ 0.125 µg/mL | ≤ 0.125 µg/mL | 16 µg/mL (≈ 13.7 µM) | ≤ 0.125 µg/mL | ≤ 0.125 µg/mL | 0.5 µg/mL (≈ 0.427 µM) | ≤ 0.125 µg/mL | 13% |
| CC[C@H]1OC(=O)[C@H](C)[C@@H](O[C@H]2C[C@@](C)(OC)[C@@H](OC(=O)CCOCCNc3cc4c(=O)c(C(=O)O)cn(C5CC5)c4cc3Cl)[C@H](C)O2)[C@H](C)[C@@H](O[C@@H]2O[C@H](C)C[C@H](N(C)C)[C@H]2O)[C@](C)(O)C[C@@H](C)CN(C)[C@H](C)[C@@H](O)[C@]1(C)O | ≤ 0.125 µg/mL | ≤ 0.125 µg/mL | ≤ 0.125 µg/mL | 0.25 µg/mL (≈ 0.222 µM) | ≤ 0.125 µg/mL | ≤ 0.125 µg/mL | 0.25 µg/mL (≈ 0.222 µM) | ≤ 0.125 µg/mL | ≤ 0.125 µg/mL | 32 µg/mL (≈ 28.4 µM) | ≤ 0.125 µg/mL | ≤ 0.125 µg/mL | 0.5 µg/mL (≈ 0.444 µM) | 0.5 µg/mL (≈ 0.444 µM) | 26% |

Reference: ChEMBL document CHEMBL1806455, “Synthesis, activity and pharmacokinetics of novel antibacterial 15-membered ring macrolones” (Eur J Med Chem, 2011)
